The values that follow are results of earlier work, collected in patent US8592434B2, “Mucoadhesive buccal tablets for the treatment of orofacial herpes” (BioAlliance Pharma SA, priority 2009, dated 2013).

For this data set the following is noted: oral treatment, irrespective of the dosage and duration.

Take `CC(C)[C@H](N)C(=O)OCCOCn1cnc2c(=O)[nH]c(N)nc21` [valacyclovir, L-valine ester of acyclovir]: the “Headaches, treated patients” value is “about 10%”. As for `CC(=O)OCC(CCn1cnc2cnc(N)nc21)COC(C)=O` [famciclovir, diacetyl ester of 6-deoxy pencyclovir], the “Headaches, treated patients” value is on record as “about 10%”.
